The text below walks through data of patent US4426371A, “Novel N-hydroxyalkylated dicarboxylic acid bis(3,5-dicarbamoyl-2,4,6-triiodoanilides), as X-ray contrast media” (Schering, Aktiengesellschaft, priority 1980, dated 1984).

Data set [1] is described as follows: Osmotic pressure of aqueous contrast media solution. It is filed as physicochemical. Conditions: 300 mg I/ml. From the text:
(§1) It was surprising that, per this invention, a comparatively minor chemical modification of the class of compounds described in DOS No. 2,628,517 (U.S. Pat. No. 4,239,747) would lead to a significant improvement in compatibility and to an increase in solubility. This can be seen from Table I wherein the compound A of this invention (malonic acid bis[3,5-bis(1,3-dihydroxyisopropylcarbamoyl)-2,4,6-triiodo-N-2-hydroxyethylanilide]) is compared with respect to osmotic pressure, viscosity, and compatibility with oxalic acid bis[3,5-bis(2,3-dihydroxypropyl-N-methylcarbamoyl)-2,4,6-triiodo-anilide] (B), as well as with iopamidol (5-[α-hydroxypropionyl-amino]-2,4,6-triiodoisopthalic acid bis[1,3-dihydroxyisopropyl-amide]) and metrizamide [2-(3-acetamido-2,4,6-triiodo-5-[N-methylacetamido]benzamido)-2-deoxy-D-glucose)].
(§2) Osmotic Pressure, Viscosity, and Compatibility of Nonionic
(§3) Contrast Media of Different Chemical Structure as an Aqueous
(§4) Solution (Concentration: 300 mg I/ml)

Data set [2] is described as follows: Viscosity of aqueous contrast media solution. In kind it is physicochemical. Particulars: 300 mg I/ml.
From the text: as §1, §2, §3, §4

A further data set has as its system Rat. Briefly: Compatibility: LD50 (Rat) upon i.v. injection. In kind it is in vivo. Particulars: rate 2 ml/min, aqueous solution 300 mg I/ml. Here is the method:
as §2, §3, §4
Pressure Viscosity (g Iodine/kg Body

For data set [3] the following is noted: for angiography and myelography; background; cited from earlier work.

For `CN(CC(O)CO)C(=O)c1c(I)c(NC(=O)C(=O)Nc2c(I)c(C(=O)N(C)CC(O)CO)c(I)c(C(=O)N(C)CC(O)CO)c2I)c(I)c(C(=O)N(C)CC(O)CO)c1I` (centres unmarked) [B, oxalic acid bis[3,5-bis(2,3-dihydroxypropyl-N-methylcarbamoyl)-2,4,6-triiodo-anilide]], in data set [1], the “Osmotic Pressure 37° C.” value is recorded as 4.3 atm. Further, the “Viscosity 37° C.” value in data set [2] is 13.7 cp. Further, the “LD50 (Rat) upon i.v. Injection” value in the data set with Rat was 13 g Iodine/kg Body Weight.

For the compound `O=C(NC(CO)CO)c1c(I)c(C(=O)NC(CO)CO)c(I)c(N(CCO)C(=O)CC(=O)N(CCO)c2c(I)c(C(=O)NC(CO)CO)c(I)c(C(=O)NC(CO)CO)c2I)c1I` [A, malonic acid bis[3,5-bis(1,3-dihydroxyisopropylcarbamoyl)-2,4,6-triiodo-N-2-hydroxyethylanilide]], the “Osmotic Pressure 37° C.” value in data set [1] was found to be 7.2 atm. The “Viscosity 37° C.” value in data set [2] is reported as 6.8 cp. Also, the “LD50 (Rat) upon i.v. Injection” value in the data set with Rat is reported as “more than 30 g Iodine/kg Body Weight”.

`C[C@H](O)C(=O)Nc1c(I)c(C(=O)NC(CO)CO)c(I)c(C(=O)NC(CO)CO)c1I` [Iopamidol, 5-[α-hydroxypropionyl-amino]-2,4,6-triiodoisopthalic acid bis[1,3-dihydroxyisopropyl-amide]]: the “Osmotic Pressure 37° C.” value in data set [1] was determined as 15.7 atm. Moreover, the “concentrated, radiopaque solutions not hypertonic to blood or other body fluid” value in data set [3] was “it has not been possible to prepare solutions sufficiently concentrated and radiopaque”. For the same compound, the “Viscosity 37° C.” value in data set [2] is given as 4.7 cp. The “LD50 (Rat) upon i.v. Injection” value with Rat was determined as 12 g Iodine/kg Body Weight.

As for `CC(=O)Nc1c(I)c(C(=O)N[C@H]2C(O)O[C@H](CO)[C@@H](O)[C@@H]2O)c(I)c(N(C)C(C)=O)c1I` (some centres unmarked) [Metrizamide], in data set [1], the “Osmotic Pressure 37° C.” value is 12.3 atm. Further, the “concentrated, radiopaque solutions not hypertonic to blood or other body fluid” value in data set [3] was “it has not been possible to prepare solutions sufficiently concentrated and radiopaque”. The “Viscosity 37° C.” value in data set [2] is 6.2 cp. Also, in the data set with Rat, the “LD50 (Rat) upon i.v. Injection” value is 12 g Iodine/kg Body Weight.
